Measured values from patent US20250223268A1, “4-Methylsulfonylbenzamide Compound, Preparation Method, Herbicidal Composition And Use” (Jiangsu Flag Chemical Industry Co., Ltd., priority 2022, published 2025).

Key:
Assay in all cases: Greenhouse herbicidal activity assay, post-emergence
Format in all cases: in vivo
[1] = system: Eclipta prostrata; settings: Post-emergence test, rate 150 g a.i./hm^2, grade by fresh weight inhibition rate; for pest or weed control at 150 g/ha: Eclipta prostrata, read-out: Control efficacy grade, Eclipta prostrata
In short: (§1)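 Weeds were sown in nutrient soil in 7 cm pots and grown in a growth chamber to the 3-6 leaf stage, then foliar-sprayed, air-dried and returned to the chamber. Fresh weight inhibition was scored 14-21 days later in bands from A (≥80% to 100%) to E (<20%).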

[2] = system: Digitaria sanguinalis; settings: Post-emergence test, rate 150 g a.i./hm^2, grade by fresh weight inhibition rate; for pest or weed control at 150 g/ha: Digitaria sanguinalis, read-out: Control efficacy grade, Digitaria sanguinalis
In short: as §1

[3] = system: Echinochloa crusgalli; settings: Post-emergence test, rate 150 g a.i./hm^2, grade by fresh weight inhibition rate; for pest or weed control at 150 g/ha: Echinochloa crus-galli, read-out: Control efficacy grade, Echinochloa crusgalli
In short: as §1

[4] = system: Leptochloa chinensis; settings: Post-emergence test, rate 150 g a.i./hm^2, grade by fresh weight inhibition rate; for pest or weed control at 150 g/ha: Dinebra chinensis, read-out: Control efficacy grade, Leptochloa chinensis
In short: as §1

[5] = system: Cyperus iria; settings: Post-emergence test, rate 150 g a.i./hm^2, grade by fresh weight inhibition rate; for pest or weed control at 150 g/ha: Cyperus iria, read-out: Control efficacy grade, Cyperus iria
In short: as §1

For `CCCSc1c(S(C)(=O)=O)ccc(C(=O)Nc2nnnn2C)c1Cl` [Compound 1-1, 2-chloro-N-(1-methyl-1H-tetrazol-5-yl)-4-(methylsulfonyl)-3-(propylthio)benzamide], the pest or weed control at 150 g/ha [1] was 80 to 100%, the pest or weed control at 150 g/ha [2] was 80 to 100% and the pest or weed control at 150 g/ha [3] was 80 to 100%. For the same compound, the pest or weed control at 150 g/ha [4] was 80 to 100% and the pest or weed control at 150 g/ha [5] was 80 to 100%.

With `CC(C)Sc1c(S(C)(=O)=O)ccc(C(=O)Nc2nnnn2C)c1Cl` [Compound 1-6] the “Control efficacy grade, Eclipta prostrata” value [1] was “A (Fresh weight inhibition rate≥80% to 100%)”, the “Control efficacy grade, Digitaria sanguinalis” value [2] was “A (Fresh weight inhibition rate≥80% to 100%)” and the “Control efficacy grade, Echinochloa crusgalli” value [3] was “A (Fresh weight inhibition rate≥80% to 100%)”. For the same compound, the “Control efficacy grade, Leptochloa chinensis” value [4] was “A (Fresh weight inhibition rate≥80% to 100%)” and the “Control efficacy grade, Cyperus iria” value [5] was “A (Fresh weight inhibition rate≥80% to 100%)”.

In the case of `CCCCSc1c(S(C)(=O)=O)ccc(C(=O)Nc2nnnn2C)c1Cl` [Compound 1-11], the “Control efficacy grade, Eclipta prostrata” value [1] is reported as “A (Fresh weight inhibition rate≥80% to 100%)”, the “Control efficacy grade, Digitaria sanguinalis” value [2] is reported as “A (Fresh weight inhibition rate≥80% to 100%)” and the “Control efficacy grade, Echinochloa crusgalli” value [3] is reported as “A (Fresh weight inhibition rate≥80% to 100%)”. The “Control efficacy grade, Leptochloa chinensis” value [4] was “A (Fresh weight inhibition rate≥80% to 100%)” and the “Control efficacy grade, Cyperus iria” value [5] was “A (Fresh weight inhibition rate≥80% to 100%)”.

In the case of `Cn1nnnc1NC(=O)c1ccc(S(C)(=O)=O)c(SCC2CC2)c1Cl` [Compound 1-27], the “Control efficacy grade, Eclipta prostrata” value [1] is reported as “A (Fresh weight inhibition rate≥80% to 100%)”, the “Control efficacy grade, Digitaria sanguinalis” value [2] is reported as “A (Fresh weight inhibition rate≥80% to 100%)” and the “Control efficacy grade, Echinochloa crusgalli” value [3] is reported as “A (Fresh weight inhibition rate≥80% to 100%)”. For the same compound, the “Control efficacy grade, Leptochloa chinensis” value [4] was “A (Fresh weight inhibition rate≥80% to 100%)” and the “Control efficacy grade, Cyperus iria” value [5] was “A (Fresh weight inhibition rate≥80% to 100%)”.

In the case of `Cn1nnnc1NC(=O)c1ccc(S(C)(=O)=O)c(SC2CC2)c1Cl` [Compound 1-32], the “Control efficacy grade, Eclipta prostrata” value [1] is reported as “A (Fresh weight inhibition rate≥80% to 100%)”, the “Control efficacy grade, Digitaria sanguinalis” value [2] is reported as “A (Fresh weight inhibition rate≥80% to 100%)” and the “Control efficacy grade, Echinochloa crusgalli” value [3] is reported as “A (Fresh weight inhibition rate≥80% to 100%)”. The “Control efficacy grade, Leptochloa chinensis” value [4] was “A (Fresh weight inhibition rate≥80% to 100%)” and the “Control efficacy grade, Cyperus iria” value [5] was “A (Fresh weight inhibition rate≥80% to 100%)”.

For `Cn1nnnc1NC(=O)c1ccc(S(C)(=O)=O)c(SCC(F)(F)F)c1Cl` [Compound 1-52], the “Control efficacy grade, Eclipta prostrata” value [1] was “A (Fresh weight inhibition rate≥80% to 100%)”, the “Control efficacy grade, Digitaria sanguinalis” value [2] was “A (Fresh weight inhibition rate≥80% to 100%)” and the “Control efficacy grade, Echinochloa crusgalli” value [3] was “A (Fresh weight inhibition rate≥80% to 100%)”. The “Control efficacy grade, Leptochloa chinensis” value [4] was “A (Fresh weight inhibition rate≥80% to 100%)” and the “Control efficacy grade, Cyperus iria” value [5] was “A (Fresh weight inhibition rate≥80% to 100%)”.

With `Cn1nnnc1NC(=O)c1ccc(S(C)(=O)=O)c(S(=O)(=O)CC(F)(F)F)c1Cl` [Compound 1-56] the “Control efficacy grade, Eclipta prostrata” value [1] was “A (Fresh weight inhibition rate≥80% to 100%)”, the “Control efficacy grade, Digitaria sanguinalis” value [2] was “A (Fresh weight inhibition rate≥80% to 100%)” and the “Control efficacy grade, Echinochloa crusgalli” value [3] was “A (Fresh weight inhibition rate≥80% to 100%)”. The “Control efficacy grade, Leptochloa chinensis” value [4] was “A (Fresh weight inhibition rate≥80% to 100%)” and the “Control efficacy grade, Cyperus iria” value [5] was “A (Fresh weight inhibition rate≥80% to 100%)”.

`C=CCSc1c(S(C)(=O)=O)ccc(C(=O)Nc2nnnn2C)c1Cl` [Compound 1-67] was tested, and the “Control efficacy grade, Eclipta prostrata” value [1] was “A (Fresh weight inhibition rate≥80% to 100%)”, the “Control efficacy grade, Digitaria sanguinalis” value [2] was “A (Fresh weight inhibition rate≥80% to 100%)” and the “Control efficacy grade, Echinochloa crusgalli” value [3] was “A (Fresh weight inhibition rate≥80% to 100%)”. For the same compound, the “Control efficacy grade, Leptochloa chinensis” value [4] was “A (Fresh weight inhibition rate≥80% to 100%)” and the “Control efficacy grade, Cyperus iria” value [5] was “A (Fresh weight inhibition rate≥80% to 100%)”.

`CCn1nnnc1NC(=O)c1ccc(S(C)(=O)=O)c([S+]([O-])C(C)C)c1Cl` (stereo not shown) [Compound 1-93, 2-chloro-N-(1-ethyl-1H-tetrazol-5-yl)-3-(isopropylsulfinyl)-4-(methylsulfonyl)benzamide] was tested, and the pest or weed control at 150 g/ha [1] was 80 to 100%, the pest or weed control at 150 g/ha [2] was 80 to 100% and the pest or weed control at 150 g/ha [3] was 80 to 100%. It also gave a pest or weed control at 150 g/ha [4] of 80 to 100% and a pest or weed control at 150 g/ha [5] of 80 to 100%.

With `CCCSc1c(S(C)(=O)=O)ccc(C(=O)Nc2ncnn2C)c1Cl` [Compound 2-1] the “Control efficacy grade, Eclipta prostrata” value [1] was “A (Fresh weight inhibition rate≥80% to 100%)”, the “Control efficacy grade, Digitaria sanguinalis” value [2] was “A (Fresh weight inhibition rate≥80% to 100%)” and the “Control efficacy grade, Echinochloa crusgalli” value [3] was “A (Fresh weight inhibition rate≥80% to 100%)”. The “Control efficacy grade, Leptochloa chinensis” value [4] was “A (Fresh weight inhibition rate≥80% to 100%)” and the “Control efficacy grade, Cyperus iria” value [5] was “A (Fresh weight inhibition rate≥80% to 100%)”.

`CCCS(=O)(=O)c1c(S(C)(=O)=O)ccc(C(=O)Nc2ncnn2C)c1Cl` [Compound 2-5] was tested, and the “Control efficacy grade, Eclipta prostrata” value [1] was “A (Fresh weight inhibition rate≥80% to 100%)”, the “Control efficacy grade, Digitaria sanguinalis” value [2] was “B (Fresh weight inhibition rate≥260% to <80%)” and the “Control efficacy grade, Echinochloa crusgalli” value [3] was “B (Fresh weight inhibition rate≥260% to <80%)”. The “Control efficacy grade, Leptochloa chinensis” value [4] was “A (Fresh weight inhibition rate≥80% to 100%)” and the “Control efficacy grade, Cyperus iria” value [5] was “A (Fresh weight inhibition rate≥80% to 100%)”.

With `CC(C)Sc1c(S(C)(=O)=O)ccc(C(=O)Nc2ncnn2C)c1Cl` [Compound 2-6, 2-chloro-3-(isopropylthio)-N-(1-methyl-1H-1,2,4-triazol-5-yl)-4-(methylsulfonyl)benzamide] the pest or weed control at 150 g/ha [1] was 80 to 100%, the pest or weed control at 150 g/ha [2] was 80 to 260% and the pest or weed control at 150 g/ha [3] was 80 to 100%. It also gave a pest or weed control at 150 g/ha [4] of 80 to 100% and a pest or weed control at 150 g/ha [5] of 80 to 100%.

For `Cn1ncnc1NC(=O)c1ccc(S(C)(=O)=O)c(SCC2CC2)c1Cl` [Compound 2-27], the “Control efficacy grade, Eclipta prostrata” value [1] was “A (Fresh weight inhibition rate≥80% to 100%)”, the “Control efficacy grade, Digitaria sanguinalis” value [2] was “A (Fresh weight inhibition rate≥80% to 100%)” and the “Control efficacy grade, Echinochloa crusgalli” value [3] was “A (Fresh weight inhibition rate≥80% to 100%)”. For the same compound, the “Control efficacy grade, Leptochloa chinensis” value [4] was “A (Fresh weight inhibition rate≥80% to 100%)” and the “Control efficacy grade, Cyperus iria” value [5] was “A (Fresh weight inhibition rate≥80% to 100%)”.

In the case of `Cn1ncnc1NC(=O)c1ccc(S(C)(=O)=O)c(SC2CCC2)c1Cl` [Compound 2-37], the “Control efficacy grade, Eclipta prostrata” value [1] is reported as “A (Fresh weight inhibition rate≥80% to 100%)”, the “Control efficacy grade, Digitaria sanguinalis” value [2] is reported as “B (Fresh weight inhibition rate≥260% to <80%)” and the “Control efficacy grade, Echinochloa crusgalli” value [3] is reported as “A (Fresh weight inhibition rate≥80% to 100%)”. The “Control efficacy grade, Leptochloa chinensis” value [4] was “A (Fresh weight inhibition rate≥80% to 100%)” and the “Control efficacy grade, Cyperus iria” value [5] was “A (Fresh weight inhibition rate≥80% to 100%)”.

With `C=CCSc1c(S(C)(=O)=O)ccc(C(=O)Nc2ncnn2C)c1Cl` [Compound 2-67] the “Control efficacy grade, Eclipta prostrata” value [1] was “A (Fresh weight inhibition rate≥80% to 100%)”, the “Control efficacy grade, Digitaria sanguinalis” value [2] was “B (Fresh weight inhibition rate≥260% to <80%)” and the “Control efficacy grade, Echinochloa crusgalli” value [3] was “B (Fresh weight inhibition rate≥260% to <80%)”. For the same compound, the “Control efficacy grade, Leptochloa chinensis” value [4] was “B (Fresh weight inhibition rate≥260% to <80%)” and the “Control efficacy grade, Cyperus iria” value [5] was “A (Fresh weight inhibition rate≥80% to 100%)”.

For `C=CCS(=O)(=O)c1c(S(C)(=O)=O)ccc(C(=O)Nc2ncnn2C)c1Cl` [Compound 2-71], the “Control efficacy grade, Eclipta prostrata” value [1] was “A (Fresh weight inhibition rate≥80% to 100%)”, the “Control efficacy grade, Digitaria sanguinalis” value [2] was “A (Fresh weight inhibition rate≥80% to 100%)” and the “Control efficacy grade, Echinochloa crusgalli” value [3] was “A (Fresh weight inhibition rate≥80% to 100%)”. For the same compound, the “Control efficacy grade, Leptochloa chinensis” value [4] was “A (Fresh weight inhibition rate≥80% to 100%)” and the “Control efficacy grade, Cyperus iria” value [5] was “A (Fresh weight inhibition rate≥80% to 100%)”.

In the case of `CCCSc1c(S(C)(=O)=O)ccc(C(=O)Nc2nnc(C)o2)c1Cl` [Compound 3-1], the “Control efficacy grade, Eclipta prostrata” value [1] is reported as “A (Fresh weight inhibition rate≥80% to 100%)”, the “Control efficacy grade, Digitaria sanguinalis” value [2] is reported as “A (Fresh weight inhibition rate≥80% to 100%)” and the “Control efficacy grade, Echinochloa crusgalli” value [3] is reported as “A (Fresh weight inhibition rate≥80% to 100%)”. For the same compound, the “Control efficacy grade, Leptochloa chinensis” value [4] was “A (Fresh weight inhibition rate≥80% to 100%)” and the “Control efficacy grade, Cyperus iria” value [5] was “A (Fresh weight inhibition rate≥80% to 100%)”.

For `Cc1nnc(NC(=O)c2ccc(S(C)(=O)=O)c(SC(C)C)c2Cl)o1` [Compound 3-6, 2-chloro-3-(isopropylthio)-N-(5-methyl-1,3,4-oxadiazol-2-yl)-4-(methylsulfonyl)benzamide], the pest or weed control at 150 g/ha [1] was 80 to 100%, the pest or weed control at 150 g/ha [2] was 80 to 100% and the pest or weed control at 150 g/ha [3] was 80 to 100%. It also gave a pest or weed control at 150 g/ha [4] of 80 to 100% and a pest or weed control at 150 g/ha [5] of 80 to 100%.

With `Cc1nnc(NC(=O)c2ccc(S(C)(=O)=O)c([S+]([O-])C(C)C)c2Cl)o1` (stereo not shown) [Compound 3-7, 2-chloro-3-(isopropylsulfinyl)-N-(5-methyl-1,3,4-oxadiazol-2-yl)-4-(methylsulfonyl)benzamide] the pest or weed control at 150 g/ha [1] was 80 to 100%, the pest or weed control at 150 g/ha [2] was 80 to 100% and the pest or weed control at 150 g/ha [3] was 80 to 100%. For the same compound, the pest or weed control at 150 g/ha [4] was 80 to 100% and the pest or weed control at 150 g/ha [5] was 80 to 100%.

`CCCCSc1c(S(C)(=O)=O)ccc(C(=O)Nc2nnc(C)o2)c1Cl` [Compound 3-11] was tested, and the “Control efficacy grade, Eclipta prostrata” value [1] was “A (Fresh weight inhibition rate≥80% to 100%)”, the “Control efficacy grade, Digitaria sanguinalis” value [2] was “A (Fresh weight inhibition rate≥80% to 100%)” and the “Control efficacy grade, Echinochloa crusgalli” value [3] was “B (Fresh weight inhibition rate≥260% to <80%)”. The “Control efficacy grade, Leptochloa chinensis” value [4] was “A (Fresh weight inhibition rate≥80% to 100%)” and the “Control efficacy grade, Cyperus iria” value [5] was “A (Fresh weight inhibition rate≥80% to 100%)”.
